Measurements reported in ChEMBL document CHEMBL4024727, “Synthesis and antimycobacterial screening of new thiazolyl-oxazole derivatives” (Eur J Med Chem, 2017).
≈ marks a conversion by molar mass, not a printed value.

Legend:
[1] = test system: Mycobacterium tuberculosis; assay: Growth inhibition of Mycobacterium tuberculosis H37Ra ATCC 25177 at 30 ug/ml by XTT dye based two-fold dilution method relative to control; assay type: functional; details: read-out: GI
[2] = test system: Mycobacterium tuberculosis; assay: Growth inhibition of Mycobacterium tuberculosis H37Ra ATCC 25177 at 10 ug/ml by XTT dye based two-fold dilution method relative to control; assay type: functional; details: read-out: GI
[3] = test system: Mycobacterium tuberculosis; assay: Growth inhibition of Mycobacterium tuberculosis H37Ra ATCC 25177 at 3 ug/ml by XTT dye based two-fold dilution method relative to control; assay type: functional; details: read-out: GI
[4] = test system: Mycobacterium tuberculosis; assay: Growth inhibition of Mycobacterium bovis BCG ATCC 35743 at 30 ug/ml by nitrate reductase based two-fold dilution assay relative to control; assay type: functional; details: BCG str. ATCC 35743, read-out: GI
[5] = test system: Mycobacterium tuberculosis; assay: Growth inhibition of Mycobacterium bovis BCG ATCC 35743 at 10 ug/ml by nitrate reductase based two-fold dilution assay relative to control; assay type: functional; details: BCG str. ATCC 35743, read-out: GI
[6] = test system: Mycobacterium tuberculosis; assay: Growth inhibition of Mycobacterium bovis BCG ATCC 35743 at 1 ug/ml by nitrate reductase based two-fold dilution assay relative to control; assay type: functional; details: BCG str. ATCC 35743, read-out: GI
[7] = test system: Mycobacterium tuberculosis; assay: Antitubercular activity against Mycobacterium tuberculosis H37Ra ATCC 25177 dormant stage by XTT dye based two-fold dilution method; assay type: functional
[8] = test system: Mycobacterium tuberculosis; assay: Antitubercular activity against Mycobacterium bovis BCG ATCC 35743 dormant stage by nitrate reductase based two-fold dilution assay; assay type: functional; details: BCG str. ATCC 35743
Escherichia coli [9] = assay: Growth inhibition of Escherichia coli NCIM 2576 at 30 ug/ml measured after 8 hrs relative to control; assay type: functional; details: NCIM 2576, 8 h, read-out: GI
Escherichia coli [10] = assay: Growth inhibition of Escherichia coli NCIM 2576 at 10 ug/ml measured after 8 hrs relative to control; assay type: functional; details: NCIM 2576, 8 h, read-out: GI
Escherichia coli [11] = assay: Growth inhibition of Escherichia coli NCIM 2576 at 1 ug/ml measured after 8 hrs relative to control; assay type: functional; details: NCIM 2576, 8 h, read-out: GI
Pseudomonas fluorescens [12] = assay: Growth inhibition of Pseudomonas fluorescens NCIM 2059 at 30 ug/ml measured after 8 hrs relative to control; assay type: functional; details: NCIM 2059, 8 h, read-out: GI
Pseudomonas fluorescens [13] = assay: Growth inhibition of Pseudomonas fluorescens NCIM 2059 at 10 ug/ml measured after 8 hrs relative to control; assay type: functional; details: NCIM 2059, 8 h, read-out: GI
Pseudomonas fluorescens [14] = assay: Growth inhibition of Pseudomonas fluorescens NCIM 2059 at 1 ug/ml measured after 8 hrs relative to control; assay type: functional; details: NCIM 2059, 8 h, read-out: GI
Staphylococcus aureus [15] = assay: Growth inhibition of Staphylococcus aureus NCIM 2602 at 30 ug/ml measured after 12 hrs relative to control; assay type: functional; details: NCIM 2602, 12 h, read-out: GI
Staphylococcus aureus [16] = assay: Growth inhibition of Staphylococcus aureus NCIM 2602 at 10 ug/ml measured after 12 hrs relative to control; assay type: functional; details: NCIM 2602, 12 h, read-out: GI
Staphylococcus aureus [17] = assay: Growth inhibition of Staphylococcus aureus NCIM 2602 at 1 ug/ml measured after 12 hrs relative to control; assay type: functional; details: NCIM 2602, 12 h, read-out: GI
Bacillus subtilis [18] = assay: Growth inhibition of Bacillus subtilis NCIM 2162 at 30 ug/ml measured after 12 hrs relative to control; assay type: functional; details: NCIM 2162, 12 h, read-out: GI
Bacillus subtilis [19] = assay: Growth inhibition of Bacillus subtilis NCIM 2162 at 10 ug/ml measured after 12 hrs relative to control; assay type: functional; details: NCIM 2162, 12 h, read-out: GI
Bacillus subtilis [20] = assay: Growth inhibition of Bacillus subtilis NCIM 2162 at 1 ug/ml measured after 12 hrs relative to control; assay type: functional; details: NCIM 2162, 12 h, read-out: GI
Escherichia coli [21] = assay: Antibacterial activity against Escherichia coli NCIM 2576 measured after 8 hrs; assay type: functional; details: NCIM 2576, 8 h
Pseudomonas fluorescens [22] = assay: Antibacterial activity against Pseudomonas fluorescens NCIM 2059 measured after 8 hrs; assay type: functional; details: NCIM 2059, 8 h
Staphylococcus aureus [23] = assay: Antibacterial activity against Staphylococcus aureus NCIM 2602 measured after 12 hrs; assay type: functional; details: NCIM 2602, 12 h
Bacillus subtilis [24] = assay: Antibacterial activity against Bacillus subtilis NCIM 2162 measured after 12 hrs; assay type: functional; details: NCIM 2162, 12 h
[25] = (§1) Growth inhibition of human HeLa cells by MTT assay; assay type: cell-based; details: HeLa cells
HeLa = assay: as §1; assay type: cell-based; details: hela
[26] = (§2) Growth inhibition of human A549 cells by MTT assay; assay type: cell-based; details: A549 cells
A549 = assay: as §2; assay type: cell-based; details: a549
[27] = (§3) Growth inhibition of human PANC1 cells by MTT assay; assay type: cell-based, PANC-1; details: PANC-1 cells
PANC-1 = assay: as §3; assay type: cell-based; details: panc-1
[28] = Selectivity index, ratio of GI50 for human HeLa cells to MIC for Mycobacterium tuberculosis H37Ra ATCC 25177 dormant stage; assay type: toxicity, cell-based; details: read-out: Selectivity Index
[29] = Selectivity index, ratio of GI50 for human HeLa cells to MIC for Mycobacterium bovis BCG ATCC 35743 dormant stage; assay type: toxicity, cell-based; details: read-out: Selectivity Index
[30] = Selectivity index, ratio of GI50 for human A549 cells to MIC for Mycobacterium tuberculosis H37Ra ATCC 25177 dormant stage; assay type: toxicity; details: read-out: Selectivity Index
[31] = Selectivity index, ratio of GI50 for human A549 cells to MIC for Mycobacterium bovis BCG ATCC 35743 dormant stage; assay type: toxicity; details: read-out: Selectivity Index
[32] = Selectivity index, ratio of GI50 for human PANC1 cells to MIC for Mycobacterium tuberculosis H37Ra ATCC 25177 dormant stage; assay type: toxicity; details: PANC-1 cells, read-out: Selectivity Index
[33] = Selectivity index, ratio of GI50 for human PANC1 cells to MIC for Mycobacterium bovis BCG ATCC 35743 dormant stage; assay type: toxicity; details: PANC-1 cells, read-out: Selectivity Index

With `Cc1nc(-c2ccccc2)oc1-c1csc(Cc2cccc(Cl)c2)n1` the inhibition of growth at 30 µg/mL [1] was 98%, the inhibition of growth at 10 µg/mL [2] was 97% and the inhibition of growth at 3 µg/mL [3] was 96%. It also gave an inhibition of growth at 30 µg/mL [4] of 95%, an inhibition of growth at 10 µg/mL [5] of 94% and an inhibition of growth at 1 µg/mL [6] of 94%. It also gave an IC50 [7] of 230 nM, an MIC90 [7] of 3.49 µM (≈ 1.28 µg/mL) and an IC50 [8] of 760 nM. For the same compound, the MIC90 [8] was 3.76 µM (≈ 1.38 µg/mL), the inhibition of growth at 30 µg/mL (Escherichia coli [9]) was 95.9% and the inhibition of growth at 10 µg/mL (Escherichia coli [10]) was 88.7%. For the same compound, the inhibition of growth at 1 µg/mL (Escherichia coli [11]) was 74.7%, the inhibition of growth at 30 µg/mL (Pseudomonas fluorescens [12]) was 95.8% and the inhibition of growth at 10 µg/mL (Pseudomonas fluorescens [13]) was 82.7%. The inhibition of growth at 1 µg/mL (Pseudomonas fluorescens [14]) was 79.3%, the inhibition of growth at 30 µg/mL (Staphylococcus aureus [15]) was 92.2% and the inhibition of growth at 10 µg/mL (Staphylococcus aureus [16]) was 81.3%. For the same compound, the inhibition of growth at 1 µg/mL (Staphylococcus aureus [17]) was 73.2%, the inhibition of growth at 30 µg/mL (Bacillus subtilis [18]) was 92% and the inhibition of growth at 10 µg/mL (Bacillus subtilis [19]) was 86.8%. It also gave an inhibition of growth at 1 µg/mL (Bacillus subtilis [20]) of 80.3%, an MIC (Escherichia coli [21]) of 15.4 µg/mL (≈ 42 µM) and an MIC (Pseudomonas fluorescens [22]) of 20.9 µg/mL (≈ 57 µM). It also gave an MIC (Staphylococcus aureus [23]) of 25.6 µg/mL (≈ 69.8 µM), an MIC (Bacillus subtilis [24]) of 21.7 µg/mL (≈ 59.1 µM) and a GI50 [25] of 68.7 µg/mL (≈ 187 µM). For the same compound, the GI90 (HeLa) was over 250 µg/mL, the GI50 [26] was over 250 µg/mL and the GI90 (A549) was over 250 µg/mL. The GI50 [27] was over 250 µg/mL, the GI90 (PANC-1) was over 250 µg/mL and the selectivity ratio [28] was 54. The selectivity ratio [29] was 50, the selectivity ratio [30] was 195 and the selectivity ratio [31] was 181. For the same compound, the selectivity ratio [32] was 195 and the selectivity ratio [33] was 181.
